{"source": "ChEMBL document CHEMBL1145667", "about": "“Carboxyatractyloside: A Compound from Xanthium strumarium and Atractylis gummifera with Plant Growth Inhibiting Properties. The Probable \"Inhibitor A\"” (1983)", "key": {"Triticum aestivum [1]": {"tested_on": "Triticum aestivum", "test": "Growth inhibition of etiolated wheat coleoptiles at 1000 uM after 24 hrs at 22 degC in dark relative to control", "type": "functional", "details": "read-out: GI"}, "Triticum aestivum [2]": {"tested_on": "Triticum aestivum", "test": "Growth inhibition of etiolated wheat coleoptiles at 100 uM after 24 hrs at 22 degC in dark relative to control", "type": "functional", "details": "read-out: GI"}, "Triticum aestivum [3]": {"tested_on": "Triticum aestivum", "test": "Growth inhibition of etiolated wheat coleoptiles at 10 uM after 24 hrs at 22 degC in dark relative to control", "type": "functional", "details": "read-out: GI"}, "Triticum aestivum [4]": {"tested_on": "Triticum aestivum", "test": "Growth inhibition of etiolated wheat coleoptiles at 0.60 to 0.90 retention factor by paper chromatograms relative to control", "type": "functional"}, "Zea mays [5]": {"tested_on": "Zea mays", "test": "Growth inhibition of green house corn seedling assessed as necrotic lesions at 10000 uM after 72 hrs", "type": "functional, organism-based"}, "Zea mays [6]": {"tested_on": "Zea mays", "test": "Growth inhibition of green house corn seedling assessed as chlorosis at 1000 uM after 72 hrs", "type": "functional, organism-based"}, "Zea mays [7]": {"tested_on": "Zea mays", "test": "Growth inhibition of green house corn seedling assessed as chlorosis at 100 uM after 72 hrs", "type": "functional, organism-based"}, "Zea mays [8]": {"tested_on": "Zea mays", "test": "Growth inhibition of green house corn seedling assessed as stunting at 1000 uM after 72 hrs", "type": "functional, organism-based"}, "Zea mays [9]": {"tested_on": "Zea mays", "test": "Growth inhibition of green house corn seedling assessed as stunting at 100 uM after 72 hrs", "type": "functional, organism-based"}, "Zea mays [10]": {"tested_on": "Zea mays", "test": "Growth inhibition of green house corn seedling assessed as necrotic lesions at 10000 uM after 1 week relative to control", "type": "functional", "details": "168 h, read-out: GI"}, "Zea mays [11]": {"tested_on": "Zea mays", "test": "Growth inhibition of green house corn seedling assessed as stunting at 10000 uM after 1 week relative to control", "type": "functional", "details": "168 h, read-out: GI"}, "Zea mays [12]": {"tested_on": "Zea mays", "test": "Growth inhibition of green house corn seedling assessed as whorls and chlorosis of the leaf margins at 1000 uM relative to control", "type": "functional", "details": "read-out: GI"}, "Zea mays [13]": {"tested_on": "Zea mays", "test": "Growth inhibition of green house corn seedling at 10000 uM after 2 weeks relative to control", "type": "functional", "details": "336 h, read-out: GI"}, "Zea mays [14]": {"tested_on": "Zea mays", "test": "Growth inhibition of green house corn seedling at 1000 uM after 2 weeks relative to control", "type": "functional", "details": "336 h, read-out: GI"}, "Nicotiana tabacum [15]": {"tested_on": "Nicotiana tabacum", "test": "Growth inhibition of green house tobacco seedlings assessed as cupping of leaves at 10000 uM within 24 hrs", "type": "functional, organism-based"}, "Nicotiana tabacum [16]": {"tested_on": "Nicotiana tabacum", "test": "Growth inhibition of green house tobacco seedlings assessed as cupping of leaves at 1000 uM within 24 hrs", "type": "functional, organism-based"}, "Nicotiana tabacum [17]": {"tested_on": "Nicotiana tabacum", "test": "Growth inhibition of green house tobacco seedlings assessed as cupping of leaves at 100 uM within 24 hrs", "type": "functional, organism-based"}, "Nicotiana tabacum [18]": {"tested_on": "Nicotiana tabacum", "test": "Growth inhibition of green house tobacco seedlings assessed as cupping of leaves resembling tobacco at 10000 uM at 2 to 7 degC after 24 hrs", "type": "functional, organism-based"}, "Nicotiana tabacum [19]": {"tested_on": "Nicotiana tabacum", "test": "Growth inhibition of green house tobacco seedlings assessed as cupping of leaves resembling tobacco at 1000 uM at 2 to 7 degC after 24 hrs", "type": "functional, organism-based"}, "Nicotiana tabacum [20]": {"tested_on": "Nicotiana tabacum", "test": "Growth inhibition of green house tobacco seedlings assessed as cupping of leaves resembling tobacco at 100 uM at 2 to 7 degC after 24 hrs", "type": "functional, organism-based"}, "Nicotiana tabacum [21]": {"tested_on": "Nicotiana tabacum", "test": "Growth inhibition of green house tobacco seedlings assessed as cupping of the leaves at 10000 uM at 18.5 degC after 24 hrs", "type": "functional, organism-based"}, "Nicotiana tabacum [22]": {"tested_on": "Nicotiana tabacum", "test": "Growth inhibition of green house tobacco seedlings assessed as cupping of the leaves at 1000 uM at 18.5 degC after 24 hrs", "type": "functional, organism-based"}, "Nicotiana tabacum [23]": {"tested_on": "Nicotiana tabacum", "test": "Growth inhibition of green house tobacco seedlings assessed as cupping of the leaves at 100 uM at 18.5 degC after 24 hrs", "type": "functional, organism-based"}, "Nicotiana tabacum [24]": {"tested_on": "Nicotiana tabacum", "test": "Growth inhibition of green house tobacco seedlings assessed as cupping of the leaves at 10000 uM after 72 hrs at 18.5 degC", "type": "functional, organism-based"}, "Nicotiana tabacum [25]": {"tested_on": "Nicotiana tabacum", "test": "Growth inhibition of green house tobacco seedlings assessed as cupping of the leaves at 1000 uM after 72 hrs at 18.5 degC", "type": "functional, organism-based"}, "Nicotiana tabacum [26]": {"tested_on": "Nicotiana tabacum", "test": "Growth inhibition of green house tobacco seedlings assessed as cupping of the leaves at 100 uM after 72 hrs at 18.5 degC", "type": "functional, organism-based"}, "Triticum aestivum [27]": {"tested_on": "Triticum aestivum", "test": "Growth inhibition of etiolated wheat coleoptiles at 0.00 to 0.10 retention factor by paper chromatograms relative to control", "type": "functional", "set-up": "scale not given: the % may be the effect or the level left"}, "Triticum aestivum [28]": {"tested_on": "Triticum aestivum", "test": "Growth inhibition of etiolated wheat coleoptiles at 0.10 to 0.20 retention factor by paper chromatograms relative to control", "type": "functional", "set-up": "scale not given: the % may be the effect or the level left"}, "Triticum aestivum [29]": {"tested_on": "Triticum aestivum", "test": "Growth inhibition of etiolated wheat coleoptiles at 0.20 to 0.30 retention factor by paper chromatograms relative to control", "type": "functional", "set-up": "scale not given: the % may be the effect or the level left"}}, "note": "Activity calls are given as the source filed them. The rule behind the calls is not given here.", "data": [{"compound": "CC1=CC(=O)CC(C)(C)C1(O)/C=C/C(C)=C\\C(=O)O", "note": "(racemic) [ABSCISIC ACID]", "values": [{"measurement": "inhibition of growth at 1000 µM", "setting": "Triticum aestivum [1]", "result": 100, "unit": "%"}, {"measurement": "inhibition of growth at 100 µM", "setting": "Triticum aestivum [2]", "result": 90, "unit": "%"}, {"measurement": "inhibition of growth at 10 µM", "setting": "Triticum aestivum [3]", "result": 69, "unit": "%"}, {"measurement": "growth inhibition (GI)", "setting": "Triticum aestivum [4]", "result": 100, "unit": "%"}]}, {"compound": "C=C1[C@H]2CC[C@H]3[C@]4(C)C[C@H](O[C@@H]5O[C@H](CO)[C@@H](OS(=O)(=O)O)[C@H](OS(=O)(=O)O)[C@H]5OC(=O)CC(C)C)CC(C(=O)[O-])(C(=O)[O-])[C@H]4CC[C@]3(C2)[C@H]1O.[K+].[K+]", "note": "[POTASSIUM CARBOXYATRACTYLOSIDE]", "values": [{"measurement": "inhibition of growth at 1000 µM", "setting": "Triticum aestivum [1]", "result": 100, "unit": "%"}, {"measurement": "inhibition of growth at 100 µM", "setting": "Triticum aestivum [2]", "result": 91, "unit": "%"}, {"measurement": "inhibition of growth at 10 µM", "setting": "Triticum aestivum [3]", "result": 48, "unit": "%"}, {"measurement": "Activity", "setting": "Zea mays [5]", "result": "Active"}, {"measurement": "Activity", "setting": "Zea mays [6]", "result": "Active"}, {"measurement": "Activity", "setting": "Zea mays [7]", "result": "Active"}, {"measurement": "Activity", "setting": "Zea mays [8]", "result": "Active"}, {"measurement": "Activity", "setting": "Zea mays [9]", "result": "Active"}, {"measurement": "inhibition of growth at 10000 µM", "setting": "Zea mays [10]", "result": 50, "unit": "%"}, {"measurement": "inhibition of growth at 10000 µM", "setting": "Zea mays [11]", "result": 50, "unit": "%"}, {"measurement": "inhibition of growth at 1000 µM", "setting": "Zea mays [12]", "result": 25, "unit": "%"}, {"measurement": "inhibition of growth at 10000 µM", "setting": "Zea mays [13]", "result": 43, "unit": "%"}, {"measurement": "inhibition of growth at 1000 µM", "setting": "Zea mays [14]", "result": 14, "unit": "%"}, {"measurement": "Activity", "setting": "Nicotiana tabacum [15]", "result": "Active"}, {"measurement": "Activity", "setting": "Nicotiana tabacum [16]", "result": "Active"}, {"measurement": "Activity", "setting": "Nicotiana tabacum [17]", "result": "Active"}, {"measurement": "Activity", "setting": "Nicotiana tabacum [18]", "result": "Active"}, {"measurement": "Activity", "setting": "Nicotiana tabacum [19]", "result": "Active"}, {"measurement": "Activity", "setting": "Nicotiana tabacum [20]", "result": "Active"}, {"measurement": "Activity", "setting": "Nicotiana tabacum [21]", "result": "Active"}, {"measurement": "Activity", "setting": "Nicotiana tabacum [22]", "result": "Active"}, {"measurement": "Activity", "setting": "Nicotiana tabacum [23]", "result": "Active"}, {"measurement": "Activity", "setting": "Nicotiana tabacum [24]", "result": "Active"}, {"measurement": "Activity", "setting": "Nicotiana tabacum [25]", "result": "Active"}, {"measurement": "Activity", "setting": "Nicotiana tabacum [26]", "result": "Active"}, {"measurement": "Activity", "setting": "Triticum aestivum [27]", "result": 88.4, "unit": "%"}, {"measurement": "Activity", "setting": "Triticum aestivum [28]", "result": 76.7, "unit": "%"}, {"measurement": "Activity", "setting": "Triticum aestivum [29]", "result": 86.4, "unit": "%"}]}]}
